The values that follow come from US11666658B2, “Rifamycin analogs and antibody-drug conjugates thereof” (Regeneron Pharmaceuticals, Inc., priority 2018, dated 2023).

For one test, the system named is S. aureus NRS384. Nature of the test: Broth minimum inhibitory concentration (MIC) assay 2. Type of test: cell-based, Staphylococcus aureus. The conditions noted are these: S. aureus NRS384 in TSB, 24 hours at 37° C., OD600, median of at least two independent experiments; for MIC: Staphylococcus aureus, read-out: S. aureus Broth MIC. As to the method:
To test the potency of rifamycin analogs of the disclosure in vitro, a broth growth inhibition assay was developed. For the assay, S. aureus NRS384 was grown in Tryptic Soy Broth (TSB) overnight, then sub-cultured 1:50 in fresh TSB and grown for an additional two hours. The culture was then pelleted via centrifugation and washed twice in PBS. The culture was then diluted to 1×10^6 cfu/mL in TSB and 100 μL of the suspension was added per well to a 2 mL dilution plate in triplicate. […] The plates were sealed and incubated at 37° C. with shaking for 24 hours, then 150 μL of each sample was added to 96 well microtiter plates and the OD600 nm was read on a Spectramax i3 Minimax 300.
The broth MIC experiments were assessed in at least two independent experiments and the median value is captured below unless indicated otherwise.

Test [1] relates to intracellular S. aureus NRS384 in THP-1 macrophages. Briefly: Intracellular killing assay 2 (rifamycin analogs, S. aureus in THP-1 macrophages). It is filed as cell-based, Staphylococcus aureus. Conditions: lowest concentration giving intracellular S. aureus below limit of detection (50 cfu/mL) in THP-1 macrophages, median of at least two experiments; for MIC: Staphylococcus aureus, NRS384, 2 h, read-out: S. aureus Intracellular killing MIC. As to the method: THP-1 monocytic cell line was grown in media (RMPI+10% FBS+1% Penicillin/Streptomycin), then seeded at a density of 1e5 cells/well in a 96 well plate and differentiated into macrophages for three days prior to infection using 200 nM PMA. An overnight culture of S. aureus NRS384 was grown in RPMI, washed twice with PBS and resuspended at 1e7 cfu/mL in PBS. THP-1 were washed with warm media (RMPI without FBS) to remove the Penicillin/Streptomycin and then infected with the S. aureus suspension at a multiplicity of infection of 10:1 (S. aureus: macrophages). Plates were spun at 300×g for 5 minutes to synchronize adhesion of the bacteria, then incubated at 37° C. for 2 hours. Free-floating bacteria were removed by washing 2× with warm media and remaining extracellular S. aureus were killed by addition of media containing gentamicin (50 ug/mL). […] The compounds were added in media containing 50 µg/mL gentamicin to prevent extracellular growth of S. aureus. After 2 hours, plates were washed 2× with warm RPMI without FBS, and 100 ul of THP-1 lysis buffer (0.1% Triton in PBS) was added to each well. S. aureus survival was enumerated by colony forming units through serial dilution and plating onto TSA.
The intracellular MIC value indicated represents the median value of at least two independent experiments, unless indicated otherwise.

≈ marks a conversion by molar mass, not a printed value.

As for `CO[C@H]1/C=C/O[C@@]2(C)Oc3c(C)c(O)c4c(=O)c(c5oc6cc(OCCN(C)C(C)=O)cc(O)c6nc-5c4c3C2=O)NC(=O)/C(C)=C\C=C\[C@H](C)[C@H](O)[C@@H](C)[C@@H](O)[C@@H](C)[C@H](OC(C)=O)[C@@H]1C` [Analog 29j], the MIC with S. aureus NRS384 amounted to 0.000977 µM (≈ 0.000895 µg/mL); in test [1], 0.04 µM (≈ 0.0366 µg/mL).

On to `CO[C@H]1/C=C/O[C@@]2(C)Oc3c(C)c(O)c4c(=O)c(c5oc6cc(O)cc(O)c6nc-5c4c3C2=O)NC(=O)/C(C)=C\C=C\[C@H](C)[C@H](O)[C@@H](C)[C@@H](O)[C@@H](C)[C@H](OC(C)=O)[C@@H]1C` [Analog 29k], for which the figures for the MIC (with S. aureus NRS384; in test [1]) were 0.0625 µM (≈ 0.0511 µg/mL) and above 1 µM, respectively.

For the compound `CO[C@H]1/C=C/O[C@@]2(C)Oc3c(C)c(O)c4c(=O)c(c5oc6cc(OCCNCCN)ccc6nc-5c4c3C2=O)NC(=O)/C(C)=C\C=C\[C@H](C)[C@H](O)[C@@H](C)[C@@H](O)[C@@H](C)[C@H](OC(C)=O)[C@@H]1C` [Analog 35], the MIC in the test with S. aureus NRS384 was 0.25 µM (≈ 0.222 µg/mL); in test [1], above 1 µM.

On to `CO[C@H]1/C=C/O[C@@]2(C)Oc3c(C)c(O)c4c(=O)c(c5oc6ccc(OCCN(C)C)cc6nc-5c4c3C2=O)NC(=O)/C(C)=C\C=C\[C@H](C)[C@H](O)[C@@H](C)[C@@H](O)[C@@H](C)[C@H](OC(C)=O)[C@@H]1C` [Analog 38], for which the MIC was 0.0625 µM (≈ 0.0545 µg/mL) in the test on S. aureus NRS384 and 1 µM (≈ 0.872 µg/mL) in test [1].

`COc1cc(OCCN(C)C)cc2oc3c4c(=O)c5c(O)c(C)c6c(c5c-3nc12)C(=O)[C@@](C)(O/C=C/[C@H](OC)[C@@H](C)[C@@H](OC(C)=O)[C@H](C)[C@H](O)[C@H](C)[C@@H](O)[C@@H](C)/C=C/C=C(/C)C(=O)N4)O6` [Analog 43]: the MIC came to 0.00391 µM (≈ 0.00353 µg/mL) with S. aureus NRS384 and 0.04 µM (≈ 0.0361 µg/mL) in test [1].

Take `CO[C@H]1/C=C/O[C@@]2(C)Oc3c(C)c(O)c4c(=O)c(c5oc6cc(OCCN(C)C)cc(Cl)c6nc-5c4c3C2=O)NC(=O)/C(C)=C\C=C\[C@H](C)[C@H](O)[C@@H](C)[C@@H](O)[C@@H](C)[C@H](OC(C)=O)[C@@H]1C` [Analog 45]: the results for the MIC (in the test with S. aureus NRS384; in test [1]) were 0.00391 µM (≈ 0.00354 µg/mL) and 1 µM (≈ 0.906 µg/mL), respectively.

For the compound `CO[C@H]1/C=C/O[C@@]2(C)Oc3c(C)c(O)c4c(=O)c(c5oc6cc(OCCN(C)C)c(Cl)cc6nc-5c4c3C2=O)NC(=O)/C(C)=C\C=C\[C@H](C)[C@H](O)[C@@H](C)[C@@H](O)[C@@H](C)[C@H](OC(C)=O)[C@@H]1C` [Analog 48], the MIC worked out at 0.0156 µM (≈ 0.0141 µg/mL) with S. aureus NRS384 and 1 µM (≈ 0.906 µg/mL) in test [1].

Regarding `CCCCOc1cc(OCCN(C)C)cc2oc3c4c(=O)c5c(O)c(C)c6c(c5c-3nc12)C(=O)[C@@](C)(O/C=C/[C@H](OC)[C@@H](C)[C@@H](OC(C)=O)[C@H](C)[C@H](O)[C@H](C)[C@@H](O)[C@@H](C)/C=C/C=C(/C)C(=O)N4)O6` [Analog 50], the MIC came out at 0.0156 µM (≈ 0.0147 µg/mL) in the test on S. aureus NRS384 and 1 µM (≈ 0.944 µg/mL) in test [1].

Turning to `CO[C@H]1/C=C/O[C@@]2(C)Oc3c(C)c(O)c4c(=O)c(c5oc6cc(OCCN(C)C)cc(OCc7ccccc7)c6nc-5c4c3C2=O)NC(=O)/C(C)=C\C=C\[C@H](C)[C@H](O)[C@@H](C)[C@@H](O)[C@@H](C)[C@H](OC(C)=O)[C@@H]1C` [Analog 52], the MIC was found to be 0.0625 µM (≈ 0.0611 µg/mL) in the test with S. aureus NRS384 and 1 µM (≈ 0.978 µg/mL) in test [1].

Turning to `CO[C@H]1/C=C/O[C@@]2(C)Oc3c(C)c(O)c4c(=O)c(c5oc6cc(OCCN(C)C)cc(F)c6nc-5c4c3C2=O)NC(=O)/C(C)=C\C=C\[C@H](C)[C@H](O)[C@@H](C)[C@@H](O)[C@@H](C)[C@H](OC(C)=O)[C@@H]1C` [Analog 55], the MIC was 0.0156 µM (≈ 0.0139 µg/mL) in the test with S. aureus NRS384 and 0.2 µM (≈ 0.178 µg/mL) in test [1].

On to `CO[C@H]1/C=C/O[C@@]2(C)Oc3c(C)c(O)c4c(=O)c(c5oc6cc(O)cc(F)c6nc-5c4c3C2=O)NC(=O)/C(C)=C\C=C\[C@H](C)[C@H](O)[C@@H](C)[C@@H](O)[C@@H](C)[C@H](OC(C)=O)[C@@H]1C` [Analog 55a], for which the MIC is 0.0625 µM (≈ 0.0512 µg/mL) in the test on S. aureus NRS384 and above 1 µM in test [1].

On to `CO[C@H]1/C=C/O[C@@]2(C)Oc3c(C)c(O)c4c(=O)c(c5oc6cc(OCCN(C)C)cc(SC)c6nc-5c4c3C2=O)NC(=O)/C(C)=C\C=C\[C@H](C)[C@H](O)[C@@H](C)[C@@H](O)[C@@H](C)[C@H](OC(C)=O)[C@@H]1C` [Analog 60], for which the MIC in the test with S. aureus NRS384 is 0.00391 µM (≈ 0.00359 µg/mL); in test [1] it was 0.2 µM (≈ 0.184 µg/mL).

As for `CO[C@H]1/C=C/O[C@@]2(C)Oc3c(C)c(O)c4c(=O)c(c5oc6cc(OC7CCN(C)CC7)cc(O)c6nc-5c4c3C2=O)NC(=O)/C(C)=C\C=C\[C@H](C)[C@H](O)[C@@H](C)[C@@H](O)[C@@H](C)[C@H](OC(C)=O)[C@@H]1C` [Analog 68], the MIC with S. aureus NRS384 was found to be 0.0156 µM (≈ 0.0143 µg/mL); in test [1], 0.2 µM (≈ 0.183 µg/mL).

In the case of `CO[C@H]1/C=C/O[C@@]2(C)Oc3c(C)c(O)c4c(=O)c(c5oc6cccc(OCCN(C)C)c6nc-5c4c3C2=O)NC(=O)/C(C)=C\C=C\[C@H](C)[C@H](O)[C@@H](C)[C@@H](O)[C@@H](C)[C@H](OC(C)=O)[C@@H]1C` [Analog 71], the MIC with S. aureus NRS384 is 0.0156 µM (≈ 0.0136 µg/mL); in test [1] it was above 1 µM.

For `CO[C@H]1/C=C/O[C@@]2(C)Oc3c(C)c(O)c4c(=O)c(c5oc6cc(C#CCN(C)C)ccc6nc-5c4c3C2=O)NC(=O)/C(C)=C\C=C\[C@H](C)[C@H](O)[C@@H](C)[C@@H](O)[C@@H](C)[C@H](OC(C)=O)[C@@H]1C` [Analog 72], the MIC in the test with S. aureus NRS384 was 0.0625 µM (≈ 0.0541 µg/mL); in test [1], above 1 µM.

On to `CO[C@H]1/C=C/O[C@@]2(C)Oc3c(C)c(O)c4c(=O)c(c5oc6cc(CCCN(C)C)ccc6nc-5c4c3C2=O)NC(=O)/C(C)=C\C=C\[C@H](C)[C@H](O)[C@@H](C)[C@@H](O)[C@@H](C)[C@H](OC(C)=O)[C@@H]1C` [Analog 75], for which the MIC in the test with S. aureus NRS384 is 0.29 µM (≈ 0.252 µg/mL); in test [1] it was above 1 µM.

With `CO[C@H]1/C=C/O[C@@]2(C)Oc3c(C)c(O)c4c(=O)c(c5oc6cccc(O)c6nc-5c4c3C2=O)NCC(=O)/C(C)=C\C=C\[C@H](C)[C@H](O)[C@@H](C)[C@@H](O)[C@@H](C)[C@H](OC(C)=O)[C@@H]1C` [Analog P1], the “S. aureus Broth MIC” value with S. aureus NRS384 was determined as 0.0625 µM. The “S. aureus Intracellular killing MIC” value in test [1] is 0.2 µM.

Regarding `CO[C@H]1/C=C/O[C@@]2(C)Oc3c(C)c(O)c4c(=O)c(c5oc6cc(F)ccc6nc-5c4c3C2=O)NCC(=O)/C(C)=C\C=C\[C@H](C)[C@H](O)[C@@H](C)[C@@H](O)[C@@H](C)[C@H](O)[C@@H]1C` [Analog P2], the “S. aureus Broth MIC” value in the test with S. aureus NRS384 came out at 0.0625 µM. Also, the “S. aureus Intracellular killing MIC” value in test [1] was above 1 µM.
